Measurements published in US8378059B2, “Supramolecular handcuffs in polymeric architecture” (Cambridge Enterprise Ltd., priority 2007, dated 2013).

Tests used:
[1] = aqueous environment; cited from earlier work
[2] = solubility of hydrophobic guest in water, observed by 1H NMR; assay type: physicochemical
[3] = Hwang et al. J. Am. Chem. Soc. 2007; cited from earlier work

## Cucurbit[8]uril
[1]
  association constants (Ka), simultaneous binding of two organic guest molecules: ≈ 10^11 M^−2

## CCCCCCCCCCCCCCCCCC[n+]1ccc(-c2cc[n+](C)cc2)cc1 [Viologen 3, Octadecyl methyl viologen]
[2]; addition of CB[8] to a solution of Np-PEG5k and 3
  change in solubility in water: increase in solubility
[2]; guest alone
  water solubility: only sparingly water-soluble

## cucurbit[7]uril [CB[7]]
[3]
  Ka, 1:1 complex with ferrocene derivatives: ≈ 10^12 M^−1
